Target: T1, hVR1 (Homo sapiens, UniProt Q8NER1)
T1 construct: expressed in transfected cells; host or cells: HEK293
Assay: Human VR1 (hVR1) Functional Assay (FLIPR intracellular calcium, capsaicin challenge)
Type: cell-based
Settings: capsaicin 0.030 μM, HEK293 cells expressing hVR1; for inhibition at 1 µM: test concentration 1 μM

T1 sequence (Q8NER1 whole entry): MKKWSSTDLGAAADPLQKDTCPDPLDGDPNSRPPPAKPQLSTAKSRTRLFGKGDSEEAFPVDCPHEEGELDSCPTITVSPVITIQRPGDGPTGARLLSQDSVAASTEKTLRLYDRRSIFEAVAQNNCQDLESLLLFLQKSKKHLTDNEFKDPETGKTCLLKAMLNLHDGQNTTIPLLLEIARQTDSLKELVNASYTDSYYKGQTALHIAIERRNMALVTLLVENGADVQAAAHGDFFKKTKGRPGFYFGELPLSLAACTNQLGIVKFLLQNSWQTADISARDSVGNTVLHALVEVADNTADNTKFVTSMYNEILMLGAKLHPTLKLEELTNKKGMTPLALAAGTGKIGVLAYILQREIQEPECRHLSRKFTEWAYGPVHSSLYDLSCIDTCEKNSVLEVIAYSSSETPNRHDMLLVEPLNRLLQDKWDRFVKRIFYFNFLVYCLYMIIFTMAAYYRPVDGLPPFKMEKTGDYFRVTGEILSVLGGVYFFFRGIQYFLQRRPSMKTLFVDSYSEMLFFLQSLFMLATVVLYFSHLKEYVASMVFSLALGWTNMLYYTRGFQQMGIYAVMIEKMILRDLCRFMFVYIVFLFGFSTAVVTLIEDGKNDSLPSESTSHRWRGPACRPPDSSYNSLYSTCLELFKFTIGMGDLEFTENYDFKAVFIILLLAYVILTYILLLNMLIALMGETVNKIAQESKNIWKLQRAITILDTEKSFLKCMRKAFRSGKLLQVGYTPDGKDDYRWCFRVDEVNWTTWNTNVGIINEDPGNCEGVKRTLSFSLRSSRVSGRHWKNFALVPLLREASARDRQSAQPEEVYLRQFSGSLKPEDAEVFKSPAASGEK

SMILES	IC50	inhibition at 1 µM
CC(C)(O)c1ccccc1-c1ccc2[nH]c([C@@H]3C[C@H]3c3ccc(C(F)(F)F)cc3)nc2c1 [Cpd 501, 2-(2-{2-[(1R,2R)-2-(4-trifluoromethyl-phenyl)-cyclopropyl]-1H-benzimidazol-5-yl}-phenyl)-propan-2-ol]	0.085 µM	99%
OCc1ccccc1-c1cc2nc(/C=C/c3ccc(C(F)(F)F)cc3)[nH]c2cc1F [Cpd 61, (E)-(2-{6-fluoro-2-[2-(4-trifluoromethyl-phenyl)-vinyl]-1H-benzimidazol-5-yl}-phenyl)-methanol]	0.075 µM	100%
CNS(=O)(=O)c1ccccc1-c1ccc2[nH]c(/C=C/c3ccc(C(F)(F)F)cc3C(F)(F)F)nc2c1 [Cpd 455, (E)-2-{2-[2-(2,4-bis-trifluoromethyl-phenyl)-vinyl]-1H-benzimidazol-5-yl}-N-methyl-benzenesulfonamide]	0.017 µM	100%
CNS(=O)(=O)c1ccccc1-c1ccc2[nH]c(/C=C/c3cccc(F)c3F)nc2c1 [Cpd 325, (E)-2-{2-[2-(2,3-difluoro-phenyl)-vinyl]-1H-benzimidazol-5-yl}-N-methyl-benzenesulfonamide]	–	73%
OCc1ccccc1-c1cc2nc(/C=C/c3ccc(C(F)(F)F)cc3)[nH]c2cc1C(F)(F)F [Cpd 58, (E)-(2-{6-trifluoromethyl-2-[2-(4-trifluoromethyl-phenyl)-vinyl]-1H-benzimidazol-5-yl}-phenyl)-methanol]	0.095 µM	87%
NS(=O)(=O)c1ccccc1-c1ccc2[nH]c([C@@H]3C[C@H]3c3ccc(C(F)(F)F)cc3)nc2c1 [Cpd 502, 2-{2-[(1R,2R)-2-(4-trifluoromethyl-phenyl)-cyclopropyl]-1H-benzimidazol-5-yl}-benzenesulfonamide]	0.19 µM	82%
CNCc1ccccc1-c1ccc2[nH]c(/C=C/c3ccc(C(F)(F)F)cc3)nc2c1 [Cpd 485, (E)-methyl-(2-{2-[2-(4-trifluoromethyl-phenyl)-vinyl]-1H-benzimidazol-5-yl}-benzyl)-amine]	> 0.5 µM	–

Second part, the compound after the results:

IC50	inhibition at 1 µM	SMILES
0.013 µM	100%	CNS(=O)(=O)c1ccccc1-c1ccc2[nH]c(/C=C/c3ccc(C(F)(F)F)cc3F)nc2c1 [Cpd 320, (E)-2-{2-[2-(2-fluoro-4-trifluoromethyl-phenyl)-vinyl]-1H-benzimidazol-5-yl}-N-methyl-benzenesulfonamide]
0.243 µM	82%	CNS(=O)(=O)c1ccccc1-c1ccc2[nH]c(/C=C/c3ccccc3C(F)(F)F)nc2c1 [Cpd 343, (E)-N-methyl-2-{2-[2-(2-trifluoromethyl-phenyl)-vinyl]-1H-benzimidazol-5-yl}-benzenesulfonamide]
–	4%	FC(F)(F)Oc1ccccc1-c1ccc2[nH]c(/C=C/c3ccc(C(F)(F)F)cc3)nc2c1 [Cpd 488, (E)-5-(2-trifluoromethoxy-phenyl)-2-[2-(4-trifluoromethyl-phenyl)-vinyl]-1H-benzimidazole]
0.004 µM	96%	CC(C)c1ccc(CCc2nc3cc(-c4ccccc4S(N)(=O)=O)ccc3[nH]2)cc1 [Cpd 442, 2-{2-[2-(4-isopropyl-phenyl)-ethyl]-1H-benzimidazol-5-yl}-benzenesulfonamide]
–	41%	CC(=O)Nc1ccccc1-c1cc2nc(/C=C/c3ccc(C(F)(F)F)cc3)[nH]c2cc1F [Cpd 64, (E)-N-(2-{6-fluoro-2-[2-(4-trifluoromethyl-phenyl)-vinyl]-1H-benzimidazol-5-yl}-phenyl)-acetamide]
–	10%	Cc1cccc(-c2ccc3[nH]c(CCCc4ccc(C(C)(C)C)cc4)nc3c2)c1 [Cpd 30, 2-[3-(4-tert-butyl-phenyl)-propyl]-5-m-tolyl-1H-benzimidazole]
0.009 µM	99%	NS(=O)(=O)c1ccccc1-c1ccc2[nH]c(/C=C/c3ccc(F)c(F)c3)nc2c1 [Cpd 358, (E)-2-{2-[2-(3,4-difluoro-phenyl)-vinyl]-1H-benzimidazol-5-yl}-benzenesulfonamide]

— patent US7951829B2, “Benzimidazole modulators of VR1” (Janssen Pharmaceutica NV, priority 2006, dated 2011)
